From patent publication US7972615B2, “Peptide compositions for coating metal medical devices with vancomycin” (Affinergy, Inc., priority 2008, dated 2011)
Square brackets hold non-standard residues; d marks the D form. Ends that are not written are not given here. miniPeg = miniPEG linker unit; Aun = NCCCCCCCCCCC(=O)O

Key:
[1] = type: binding; settings: FIG. 1; 18 hour incubation in 10% BSA+10 mM guanidinium chloride
Excerpt: In this example, illustrated are unexpected beneficial properties of the composition of the invention, including but not limited to, one or more improved biophysical properties. Such one or more unexpected beneficial properties of a composition of the invention may comprise an increase in stability. An increase in stability may comprise any one or more of resistance to chemical denaturation, resistance to proteolytic degradation, improved retention to a substrate (e.g., resistance to being competed off a substrate to which it is bound, such as by proteins or other biomolecules found in body tissues). Thus, to ascertain a beneficial property of a composition of the invention, it is compared to the properties of a component of the composition-namely, a substrate-binding peptide by itself (e.g., without fatty acid covalently coupled thereto). An assay was developed that, from our direct comparisons (see, e.g., discussion of FIG. 2 below, and Example 7 herein), mimicked the effect of incubation of substrate-binding peptide with human plasma on stability of binding of a substrate-binding peptide to its substrate. The assay utilized incubations in the presence of 10% bovine serum album (BSA) with 10 mM guanidinium chloride. The high BSA concentration mimics the elevated albumin content of human plasma, and the guanidinium chloride is used to compete with any charged interactions involved in binding of the substrate-binding peptide to its substrate.
In this assay, two immunoassay plates were prepared for a “side-by-side” comparison of binding of a test sample (substrate-binding peptide or composition of the invention) to its substrate with or without the presence of 10% BSA with 10 mM guanidinium chloride. The wells of each 96-well polypropylene plate were incubated with 350 μl BSA 1% in PBS for 30 minutes at 20° C. with 500 rpm shaking. To each well was added one acetone-cleaned 3/32″ 316LVM stainless steel bead, followed by addition of dilutions in PBS of the test sample in a range of concentrations starting from 10 μM. Final volume in each well was 200 μl. The plates were incubated for 1 hour at 20° C. with 500 rpm shaking to allow for the binding to occur. The beads were washed 3 times with 250 μl PBS using a plate washer. […]
In the immunoassay for detecting binding without the presence of 10% BSA with 10 mM guanidinium chloride, added to each well was 200 μl of streptavidin AP (AP is alkaline phosphatase) at 1/200 in TBS+1% BSA. […] When color has developed, each well was read at OD405 nm in endpoint mode using a plate reader. […] When color has developed, the wells were read at OD405 nm in endpoint mode using a plate reader. […]

[2] = Critical micelle concentration (CMC) assay with methyl orange; type: physicochemical; settings: pH 7 PBS, A484
Description: Formation of a composition of the invention, and evidence of macromolecular network formation, may be monitored or quantified by any means known in the art. In this example, macromolecular formation was detected using a standard assay for determining critical micelle concentration (“CMC”). In this assay, a solution containing the composition of the invention (in a range of concentrations in pH 7 phosphate buffered saline (“PBS”)) was mixed with a solution of methyl orange (0.04 mM in PBS), and the absorbance of the mixture was measured at 484 nm (A484). CMC is the concentration at which a sharp decrease in absorbance at A484 is observed, a change in the optical properties of methyl orange when trapped in a hydrophobic phase, such as caused by self-association as a macromolecular network (Table 7, “CMC”). Also included in this assay were an assay control peptide having an amino acid sequence of SEQ ID NO:122 (Table 7, “Control”), and compound 119 (a PEGylated peptide, the peptide having an amino acid sequence of SEQ ID NO:122, as described in more detail in Example 6 herein).

[3] = Stent flow model (in vitro model for in vivo stability on a stent); type: binding; settings: radiolabelled
Description: In this example, an in vitro model for in vivo stability on a medical device comprising a stent was performed. The stent flow model included a “circulatory system” comprising a peristaltic pump and clear silicone tubing into which is placed a stent (8 mm, stainless steel) coated with a composition according to the invention. Coating of the stents was accomplished by incubating the stents with radiolabelled composition 132 (specific activity 2,400 cpm/pmole at 20 μM in PBS) for 1 hour at 20° C., followed by extensive washing with buffer. […] In another variation of the stent flow model, 10% BSA+10 mM guanidinium chloride was circulated through the circulatory system at a flow rate of 5 ml/min for 18 hours at 37° C. After circulation in the respective variations of the stent flow model, the coated stents were then counted for radioactivity. To serve as an assay “control”, some coated stents were not placed in the stent flow model, but rather counted for radioactive counts to provide a reference from which percent retention could be calculated for those coated stents included in the stent flow model.

[4] = Vancomycin loading onto titanium bead, HPLC of HCl eluate; type: binding; settings: components mixed with vancomycin, 30 mins at 20° C., washed three times
Description: The experimental procedure used for the embodiments described above was as follows. […] All three components were mixed and then applied to the metal bead. […] All three components were mixed and then applied to the metal bead. […] The mixtures were applied to the metal beads and incubated for 30 mins at 20° C. with 700 rpm shaking. The beads were washed three times with 350ul PBS. Beads were analyzed as follows: 200 ul of 100 mM HCl was added to each bead and incubated for 30 mins at 20° C. with 1,000 rpm shaking. The eluate from each bead was analyzed by HPLC using Phenomenex Luna 3 um column, 50×4.60 mm. Output was compared to a standard curve for vancomycin to determine the amount of vancomycin retained onto the metal bead.

## 119: Fmoc-NH-(PEG)27-CO2H covalently coupled to a peptide having the amino acid sequence of SEQ ID NO:122 (PEGylated peptide) (SSHRTNHKKNNPKKKNKTRGSSGK; not fully specified (N-terminus); also: Fmoc-NH-(PEG)27-CO2H covalently coupled, site not given here) [Compound 119, reference compound]
[1]
  retention of binding of substrate-binding peptide component to its substrate, compared to substrate-binding peptide alone (SEQ ID NO: 122): failed to promote retention

## 120: amino acid sequence YWAWAYAW (SEQ ID NO:129) covalently coupled to a peptide having the amino acid sequence of SEQ ID NO:122 (YWAWAYAWSSHRTNHKKNNPKKKNKTRGSSGK) [Compound 120, reference compound]
[1]
  retention of binding of substrate-binding peptide component to its substrate, compared to substrate-binding peptide alone (SEQ ID NO: 122): failed to promote retention

## AUD-AUD-AUD-AUD-AUD-AUD-SEQ ID NO: 122 ([Aun][Aun][Aun][Aun][Aun][Aun]SSHRTNHKKNNPKKKNKTRGSSGK) [Compound 130]
[2]
  CMC: 0.041 µM

## AUD-AUD-AUD-AUD-SEQ ID NO: 122 ([Aun][Aun][Aun][Aun]SSHRTNHKKNNPKKKNKTRGSSGK) [Compound 122]
[1]
  retention of binding of substrate-binding peptide component to its substrate, compared to substrate-binding peptide alone (SEQ ID NO: 122): significantly improved retention

## AUD-AUD-K-AUD-AUD-AUD-AUD-SEQ ID NO: 122 ([Aun][Aun]K[Aun][Aun][Aun][Aun]SSHRTNHKKNNPKKKNKTRGSSGK) [Compound 123]
[1]
  retention of binding of substrate-binding peptide component to its substrate, compared to substrate-binding peptide alone (SEQ ID NO: 122): significantly improved retention

## Ac-Y-AUD-AUD-AUD-AUD-AUD-AUD-SEQ ID NO: 122 (Ac-Y[Aun][Aun][Aun][Aun][Aun][Aun]SSHRTNHKKNNPKKKNKTRGSSGK) [Compound 132]
[3]; 10% BSA+10 mM guanidinium chloride circulated at 5 ml/min for 18 hours at 37° C.
  composition remained bound to the coated stents: over 90%
[3]; human plasma circulated at 5 ml/min for 7 days at 37° C.
  composition remained bound to the coated stents: over 90%

## MA-Ahx-SSCLIDIYGVCHN FDAY-miniPeg-miniPeg-HKKNNPKKKNKTRGSSK(Biotin) [SEQ ID NO: 164]
[4]
  Vancomycin Load: 278 pmol/cm2

## SSSCLIDMYGVCHNFDGAYDSSRG-miniPeg-miniPeg-SSHRTNHKKNNPKKKNKTRGSSGK (SSSCLIDMYGVCHNFDGAYDSSRG[miniPeg][miniPeg]SSHRTNHKKNNPKKKNKTRGSSGK; cysteine pairing not given here) [SEQ ID NO: 163]
[4]
  Vancomycin Load: 54 pmol/cm2
